Holding throughout (assay type): biochemical
One assay deals with T1, human FAK (Homo sapiens, UniProt Q05397).
T1 construct: The complete cDNA of human FAK; made in house; host or cells: baculovirus expression system (vector pFastBac HTc)
The assay can be described thus: FAK autophosphorylation inhibition, time resolved fluorescence (HTRF) assay. Conditions: 10 μM (values without asterisk); for inhibition at 10 µM: read-out: FAK % inhib at 10 μM. The method in brief: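 His-tagged full-length human FAK from baculovirus (6.6 µg/ml) self-phosphorylates with 15 µM ATP in HEPES pH 7.2, MgCl2, vanadate, 1 h at 37 °C. HTRF detection (Eu-anti-phosphotyrosine / XL665-anti-His), 665/620 nm ratio; % inhibition vs untreated control, duplicate mean.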
(TR-FRET usually uses a lanthanide donor and a delayed reading to cut background.)

The target of assay [1] is T2, human IGF1R cytoplasmic domain (Homo sapiens, UniProt P08069).
T2 construct: The human IGF1R cytoplasmic domain was cloned; made in house; host or cells: SF21 insect cells (baculovirus)
T2 sequence (P08069 960-1367 limits assumed): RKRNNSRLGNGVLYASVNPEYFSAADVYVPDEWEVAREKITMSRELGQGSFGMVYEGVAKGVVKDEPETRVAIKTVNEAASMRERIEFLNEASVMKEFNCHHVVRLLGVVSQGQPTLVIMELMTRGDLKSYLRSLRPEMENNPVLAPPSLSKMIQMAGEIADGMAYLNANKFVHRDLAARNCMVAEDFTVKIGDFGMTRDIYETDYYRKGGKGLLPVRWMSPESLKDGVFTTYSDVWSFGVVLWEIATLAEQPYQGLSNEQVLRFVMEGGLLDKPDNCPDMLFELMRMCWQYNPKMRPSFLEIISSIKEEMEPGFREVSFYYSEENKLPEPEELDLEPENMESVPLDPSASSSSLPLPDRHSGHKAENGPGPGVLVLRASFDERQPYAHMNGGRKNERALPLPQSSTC
Briefly: IGF1R autophosphorylation inhibition, time resolved fluorescence (HTRF) assay. Conditions: 10 μM; read-out: IGF1R % inhib at 10 μM. Summed up: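 GST-tagged human IGF1R cytoplasmic domain from SF21 cells incubated with compound in 50 mM Hepes pH 7.5, 5 mM MnCl2, 50 mM NaCl, […] ATP. Autophosphorylation detected by HTRF (Eu-K anti-phosphotyrosine, XL665 anti-GST) after EDTA/KF stop; percentage inhibition versus no-compound control.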

The next assay addresses T3, human KDR enzyme (Homo sapiens, UniProt P35968).
T3 construct: The cytoplasmic domain of the human KDR enzyme; GST; made in house; host or cells: SF21 insect cells (baculovirus)
The assay can be described thus: KDR substrate (PLCγ) phosphorylation, scintillation assay. The note with it: 10 μM; read-out: KDR % inhib at 10 μM. The method in brief: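 GST-fused human KDR cytoplasmic domain from SF21 cells (about 60% pure, 100 ng) phosphorylated 2 μg of GST-PLCγ SH2-SH3 fragment. The trigger solution held γ33P-ATP with 2 μM cold ATP, in MOPS buffer pH 7.2 with Mg2+, Mn2+, vanadate and NaF. Reactions ran 1 h at 37 °C, were stopped with EDTA and counted by scintillation; results are % inhibition versus the no-compound control.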

T3 sequence (P35968 786-1356 limits assumed): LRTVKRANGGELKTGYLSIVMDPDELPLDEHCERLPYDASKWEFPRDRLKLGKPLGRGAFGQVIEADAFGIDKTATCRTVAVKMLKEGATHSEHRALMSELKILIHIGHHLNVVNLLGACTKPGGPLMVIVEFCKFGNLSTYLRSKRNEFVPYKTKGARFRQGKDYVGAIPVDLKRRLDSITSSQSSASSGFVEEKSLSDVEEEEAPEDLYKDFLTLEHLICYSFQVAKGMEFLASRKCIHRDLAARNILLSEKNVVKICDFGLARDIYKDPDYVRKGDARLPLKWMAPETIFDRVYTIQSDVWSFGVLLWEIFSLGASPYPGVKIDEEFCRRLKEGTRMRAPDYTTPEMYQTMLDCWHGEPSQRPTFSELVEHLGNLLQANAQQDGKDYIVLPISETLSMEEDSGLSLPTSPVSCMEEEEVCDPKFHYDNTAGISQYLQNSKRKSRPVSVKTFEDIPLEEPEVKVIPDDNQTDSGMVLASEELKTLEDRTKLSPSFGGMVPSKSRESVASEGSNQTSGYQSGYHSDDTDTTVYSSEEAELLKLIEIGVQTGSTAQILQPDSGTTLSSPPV
T1 sequence (Q05397 whole entry): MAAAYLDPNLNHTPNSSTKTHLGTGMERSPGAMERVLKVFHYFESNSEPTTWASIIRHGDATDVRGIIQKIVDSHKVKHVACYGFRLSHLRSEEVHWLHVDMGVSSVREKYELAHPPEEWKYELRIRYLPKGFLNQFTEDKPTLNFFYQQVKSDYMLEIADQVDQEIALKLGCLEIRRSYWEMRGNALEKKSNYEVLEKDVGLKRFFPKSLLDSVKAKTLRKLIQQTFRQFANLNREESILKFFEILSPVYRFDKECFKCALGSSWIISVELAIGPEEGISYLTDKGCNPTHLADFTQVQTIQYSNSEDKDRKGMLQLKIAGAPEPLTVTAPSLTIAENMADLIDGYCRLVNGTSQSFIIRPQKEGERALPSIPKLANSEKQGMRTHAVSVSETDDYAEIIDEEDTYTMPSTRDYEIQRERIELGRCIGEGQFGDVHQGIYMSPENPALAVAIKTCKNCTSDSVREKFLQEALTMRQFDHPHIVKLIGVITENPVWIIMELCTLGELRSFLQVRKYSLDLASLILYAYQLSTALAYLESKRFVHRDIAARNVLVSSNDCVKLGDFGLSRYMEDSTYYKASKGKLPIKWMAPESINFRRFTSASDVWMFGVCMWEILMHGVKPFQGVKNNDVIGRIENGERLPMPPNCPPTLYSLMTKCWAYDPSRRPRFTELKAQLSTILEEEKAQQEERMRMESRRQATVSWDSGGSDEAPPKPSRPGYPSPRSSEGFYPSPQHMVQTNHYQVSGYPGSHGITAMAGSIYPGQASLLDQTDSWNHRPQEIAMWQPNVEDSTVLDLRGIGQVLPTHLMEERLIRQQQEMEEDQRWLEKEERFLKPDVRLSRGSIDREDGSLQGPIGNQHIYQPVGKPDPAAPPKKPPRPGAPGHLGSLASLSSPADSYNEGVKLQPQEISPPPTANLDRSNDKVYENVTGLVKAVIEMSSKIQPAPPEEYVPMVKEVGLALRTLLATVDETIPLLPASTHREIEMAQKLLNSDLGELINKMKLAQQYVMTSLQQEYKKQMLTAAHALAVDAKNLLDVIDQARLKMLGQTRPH

Take `O=C(O)c1cccc(S(=O)(=O)Nc2ccc3[nH]nc(-c4ccccc4)c3c2)c1` [Example 133, 3-(3-Phenyl-1H-indazol-5-ylsulfamoyl)benzoic acid]: the inhibition at 10 µM on human FAK is 12%; in assay [1], 40%; on human KDR enzyme, 96%.

Regarding `CNc1n[nH]c2ccc(NS(=O)(=O)c3ccccc3S(C)(=O)=O)cc12` [Example 37, N-(3-Methylamino-1H-indazol-5-yl)-2-methylsulfonylbenzenesulfonamide], the results for the inhibition at 10 µM (on human FAK; in assay [1]; on human KDR enzyme) were 67%, 51% and 8%, respectively.

Consider `COc1ccc(OC)c(S(=O)(=O)Nc2ccc3[nH]nc(-c4ccccc4)c3c2)c1` [Example 131, 2,5-Dimethoxy-N-(3-phenyl-1H-indazol-5-yl)-benzenesulfonamide], for which the values for the inhibition at 10 µM (at human FAK; in assay [1]; on human KDR enzyme) were 64%, 51% and 95%, respectively.

On to `COC(=O)c1cccc(-c2n[nH]c3ccc(NS(=O)(=O)c4ccccc4S(C)(=O)=O)cc23)c1` [Example 55, Methyl 3-[5-(2-methylsulfonylbenzenesulfonamino)-1H-indazol-3-yl]benzoate], for which the inhibition at 10 µM on human FAK came out at 98%; in assay [1], 64%; at human KDR enzyme it was 51%.

For the compound `CN(C)c1ccc(-c2n[nH]c3ccc(NS(=O)(=O)c4ccccc4S(C)(=O)=O)cc23)cc1` [Example 63, N-[3-(4-Dimethylaminophenyl)-1H-indazol-5-yl]-2-methylsulfonylbenzenesulfonamide], the inhibition at 10 µM on human FAK is 94%; in assay [1], 81%; on human KDR enzyme it was 0%.

As to `O=[N+]([O-])c1ccccc1S(=O)(=O)Nc1ccc2[nH]nc(-c3ccccc3)c2c1` [Example 113, 2-Nitro-N-(3-phenyl-1H-indazol-5-yl)benzenesulfonamide], the values for the inhibition at 10 µM (at human FAK; in assay [1]; at human KDR enzyme) were 73%, 81% and 88%, respectively.

With `CS(=O)(=O)c1ccccc1S(=O)(=O)Nc1ccc2[nH]nc(-c3ccco3)c2c1` [Example 53, N-(3-Furan-2-yl-1H-indazol-5-yl)-2-methylsulfonylbenzenesulfonamide], the inhibition at 10 µM on human FAK was 96%; in assay [1], 76%; at human KDR enzyme, 42%.

In the case of `CS(=O)(=O)c1ccccc1S(=O)(=O)Nc1ccc2[nH]nc(-c3ccc[nH]3)c2c1` [Example 60, 2-Methylsulfonyl-N-[3-(1H-pyrrol-2-yl)-1H-indazol-5-yl]benzenesulfonamide], the inhibition at 10 µM on human FAK worked out at 99%; in assay [1] it was 99%; at human KDR enzyme it was 64%.

For `CS(=O)(=O)c1ccccc1S(=O)(=O)Nc1ccc2[nH]nc(/C=C/c3ccc(F)cc3)c2c1` [Example 74, N-{3-[(E)-2-(4-Fluorophenyl)vinyl]-1H-indazol-5-yl}-2-methylsulfonylbenzenesulfonamide], the values for the inhibition at 10 µM (on human FAK; in assay [1]; at human KDR enzyme) were 99%, 95% and 95%, respectively.

For `CC(=O)Nc1ccc(S(=O)(=O)Nc2ccc3[nH]nc(-c4ccccc4)c3c2)cc1` [Example 95, N-[4-(3-Phenyl-1H-indazol-5-ylsulfamoyl)phenyl]acetamide], the “FAK % inhib at 10 μM” value at human FAK (10 µM) came out at 0%. Also, the inhibition at 10 µM was 73% in assay [1] and 34% on human KDR enzyme.

Consider `CS(=O)(=O)c1ccccc1S(=O)(=O)Nc1ccc2[nH]nc(-c3cc4ccccc4[nH]3)c2c1` [Example 61, N-[3-(1H-Indol-2-yl)-1H-indazol-5-yl]-2-methylsulfonylbenzenesulfonamide], for which the inhibition at 10 µM came out at 99% at human FAK, 99% in assay [1] and 98% on human KDR enzyme.

For `COc1cccc(S(=O)(=O)Nc2ccc3[nH]nc(-c4ccccc4)c3c2)c1` [Example 156, 3-Methoxy-N-(3-phenyl-1H-indazol-5-yl)-benzenesulfonamide], the results for the inhibition at 10 µM (on human FAK; in assay [1]; at human KDR enzyme) were 56%, 68% and 94%, respectively.

(Values after patent US6858638B2, “Substituted indazoles, compositions containing them, method of production and use” (Aventis Pharma S.A., priority 2002, dated 2005).)
